Experimental data from PubChem BioAssay (NCI).
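Growth conditions: 96-well plates. Treatment: test compound, 48 hours, 5 concentrations. Analysis: linear interpolation between bracketing concentrations; unreached endpoints set to highest concentration. The concentration for 50% growth inhibition is given as GI50. TGI: total growth inhibition.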

How the values were obtained:
Experiment in all cases: growth of human tumour cells (NCI), 48 h
[1] = test system: MDA-MB-231 breast
[2] = test system: MDA-MB-435
[3] = test system: SK-OV-3 ovarian
[4] = test system: MCF7 breast
[5] = test system: SK-MEL-5 melanoma
[6] = test system: MDA-MB-468 breast
[7] = test system: OVCAR-3 ovarian
[8] = test system: NCI-H226 lung
[9] = test system: RPMI-8226 leukemia
[10] = test system: NCI-H460 lung
[11] = test system: NCI-H522 lung
[12] = test system: OVCAR-5 ovarian
[13] = test system: SK-MEL-2 melanoma
[14] = test system: CAKI-1 renal
[15] = test system: SK-MEL-28 melanoma
[16] = test system: UO-31 renal
[17] = test system: EKVX NSCLC
[18] = test system: SNB-19 CNS
[19] = test system: 786-0 renal
[20] = test system: BT-549 breast
[21] = test system: HOP-92 NSCLC
[22] = test system: MALME-3M melanoma
[23] = test system: COLO 205 colon
[24] = test system: SN12C renal
[25] = test system: DU-145 prostate
[26] = test system: CCRF-CEM leukemia
[27] = test system: HL-60(TB) leukemia
[28] = test system: SF-268 CNS
[29] = test system: SW-620 colon
[30] = test system: UACC-257 melanoma
[31] = test system: A498 renal
[32] = test system: HT29 colon
[33] = test system: SF-539 CNS
[34] = test system: SF-295 CNS
[35] = test system: LOX IMVI melanoma
[36] = test system: PC-3 prostate
[37] = test system: KM12 colon
[38] = test system: NCI-H23 lung
[39] = test system: M14 melanoma
[40] = test system: TK-10 renal
[41] = test system: MOLT-4 leukemia
[42] = test system: UACC-62 melanoma
[43] = test system: OVCAR-4 ovarian
[44] = test system: K-562 leukemia
[45] = test system: U251 CNS
[46] = test system: T-47D breast
[47] = test system: HOP-62 NSCLC
[48] = test system: SR leukemia
[49] = test system: RXF 393 renal
[50] = test system: HCT-15 colon
[51] = test system: A549 NSCLC
[52] = test system: HCT-116 colon
[53] = test system: IGROV1 ovarian
[54] = test system: HCC-2998 colon
[55] = test system: OVCAR-8 ovarian
[56] = test system: ACHN renal
[57] = test system: HS 578T breast

## COc1ccc(-c2cc(-c3cc(OC)c(OC)c(OC)c3)[nH]c(=O)c2C#N)cc1
[1]
  GI50: 3.76 µM
  TGI: 18.4 µM
[2]
  GI50: > 100 µM
  TGI: > 100 µM
[3]
  GI50: 7.52 µM
  TGI: 26.7 µM
[4]
  GI50: 23.8 µM
  TGI: > 100 µM
[5]
  GI50: 17.1 µM
  TGI: 64.7 µM
[6]
  GI50: 17.8 µM
  TGI: 47 µM
[7]
  GI50: 62.7 µM
  TGI: > 100 µM
[8]
  GI50: 5.6 µM
  TGI: 24.9 µM
[9]
  GI50: > 100 µM
  TGI: > 100 µM
[10]
  GI50: 12.9 µM
  TGI: 44.3 µM
[11]
  GI50: 20.3 µM
  TGI: 64.4 µM
[12]
  GI50: > 100 µM
  TGI: > 100 µM
[13]
  GI50: 14.6 µM
  TGI: 30.8 µM
[14]
  GI50: 6.96 µM
  TGI: 31.4 µM
[15]
  GI50: 46 µM
  TGI: > 100 µM
[16]
  GI50: 3.54 µM
  TGI: 25.2 µM
[17]
  GI50: 21.3 µM
  TGI: > 100 µM
[18]
  GI50: 6.4 µM
  TGI: 35.8 µM
[19]
  GI50: 4.88 µM
  TGI: 20.1 µM
[20]
  GI50: 16.5 µM
  TGI: 48 µM
[21]
  GI50: 1.97 µM
  TGI: 8.17 µM
[22]
  GI50: 19.3 µM
  TGI: 97.3 µM
[23]
  GI50: > 100 µM
  TGI: > 100 µM
[24]
  GI50: 3.8 µM
  TGI: 61.6 µM
[25]
  GI50: 88.1 µM
  TGI: > 100 µM
[26]
  GI50: > 100 µM
  TGI: > 100 µM
[27]
  GI50: > 100 µM
  TGI: > 100 µM
[28]
  GI50: 16.9 µM
  TGI: 79.5 µM
[29]
  GI50: 71.8 µM
  TGI: > 100 µM
[30]
  GI50: 76.6 µM
  TGI: > 100 µM
[31]
  GI50: 3.81 µM
  TGI: 23.4 µM
[32]
  GI50: 71.6 µM
  TGI: > 100 µM
[33]
  GI50: 5.79 µM
  TGI: 20.2 µM
[34]
  GI50: 12.3 µM
  TGI: 32.3 µM
[35]
  GI50: 14 µM
  TGI: 47.4 µM
[36]
  GI50: 25.5 µM
  TGI: > 100 µM
[37]
  GI50: > 100 µM
  TGI: > 100 µM
[38]
  GI50: 18.9 µM
  TGI: 62.1 µM
[39]
  GI50: > 100 µM
  TGI: > 100 µM
[40]
  GI50: 19.8 µM
  TGI: > 100 µM
[41]
  GI50: > 100 µM
  TGI: > 100 µM
[42]
  GI50: 27.2 µM
  TGI: > 100 µM
[43]
  GI50: 4.24 µM
  TGI: 29.8 µM
[44]
  GI50: > 100 µM
  TGI: > 100 µM
[45]
  GI50: 4.48 µM
  TGI: 22.4 µM
[46]
  GI50: 7.72 µM
  TGI: > 100 µM
[47]
  GI50: 7.08 µM
  TGI: 24.1 µM
[48]
  GI50: > 100 µM
  TGI: > 100 µM
[49]
  GI50: 2.35 µM
  TGI: 12.1 µM
[50]
  GI50: 96.3 µM
  TGI: > 100 µM
[51]
  GI50: 14 µM
  TGI: > 100 µM
[52]
  GI50: 55.9 µM
  TGI: > 100 µM
[53]
  GI50: 15.1 µM
  TGI: 76.3 µM
[54]
  GI50: > 100 µM
  TGI: > 100 µM
[55]
  GI50: 4.3 µM
  TGI: 22.4 µM
[56]
  GI50: 9.76 µM
  TGI: 32.2 µM
[57]
  GI50: 5.67 µM
  TGI: 56.8 µM
